27 molecules from patent publication US5578573A, “Viral integrase inhibiting peptides” (priority 1995, dated 1996) can be followed below.

Residues, ends and D or L forms follow the SMILES beside them.

In one assay the target is T1, HIV integrase (Human immunodeficiency virus type 1 group M subtype B, UniProt P04585).
T1 construct: The HIV integrase used in these assays was expressed in E. coli; made in house; host or cells: E. coli
Put plainly: biochemical. It counts as biochemical.
Conditions: not given
The protocol:
HIV integrase activity was assayed by site-specific cleavage and integration of a 28 base pair synthetic oligonucleotide substrate representing HIV-1 U5 essentially as described by Vink et al., Nucl. Acids Res. 21:1419-1425 (1993), which is incorporated herein by reference. The HIV integrase used in these assays was expressed in E. coli and purified to near homogeneity.
Briefly, 0.2 pmol 5'-^32 P-oligonucleotide substrate and 2 μM HIV integrase were incubated at 37° C. for 1 hr in 10 μl assay buffer (10 mM MOPS, pH 7.2, 50 mM NaCl, 3 mM MnCl2, 0.05 mM EDTA, 0.1 mM β-mercaptoethanol, 4% glycerol). Control integrase activity was determined in the absence of any peptide. The activity of a peptide to be tested was examined by adding the peptide to the appropriate concentration in a 2 μl volume. Reactions were stopped by addition of 10 μl formamide loading dye (95% formamide, 20 mM EDTA, 0.05% bromophenol blue, 0.05% xylene cyanol) and incubation at 80° C. for 3 min. A 5 μl aliquot of the sample was separated by electrophoresis on a 12% denaturing polyacrylamide gel. Migration was detected by autoradiography and integrase activity was quantified by densitometry. Inhibition of integrase activity by a peptide corresponded with the disappearance of the cleavage and integration products.
The molecule `N=C(N)NCCC[C@H](NC(=O)[C@H](Cc1c[nH]c2ccccc12)NC(=O)[C@H](Cc1ccccc1)NC(=O)[C@H](CCCCN)NC(=O)[C@H](CS)NC(=O)[C@@H](N)Cc1c[nH]cn1)C(N)=O` [compound 3] (H-HCKFWR-NH2) yielded an IC50 of 8 µM.

`CC[C@H](C)[C@H](NC(=O)[C@H](Cc1c[nH]c2ccccc12)NC(=O)[C@H](Cc1ccccc1)NC(=O)[C@H](CCCCN)NC(=O)[C@H](CS)NC(=O)[C@@H](N)Cc1c[nH]cn1)C(N)=O` [compound 11] (H-HCKFWI-NH2) had an IC50 of 4 µM.

The molecule `NCCCC[C@H](NC(=O)[C@H](CS)NC(=O)[C@@H](N)Cc1c[nH]cn1)C(=O)N[C@@H](Cc1ccccc1)C(=O)N[C@@H](Cc1c[nH]c2ccccc12)C(=O)N[C@@H](Cc1ccccc1)C(N)=O` [compound 15] (H-HCKFWF-NH2) showed an IC50 of 5 µM.

The molecule `NCCCC[C@H](NC(=O)[C@H](CS)NC(=O)[C@@H](N)Cc1cnc[nH]1)C(=O)N[C@@H](Cc1ccccc1)C(=O)N[C@@H](Cc1c[nH]c2ccccc12)C(=O)N[C@@H](Cc1c[nH]c2ccccc12)C(N)=O` [compound 19] (H-HCKFWW-NH2) gave an IC50 of 2 µM.

`C[C@H](N)C(=O)N[C@@H](CS)C(=O)N[C@@H](CCCCN)C(=O)N[C@@H](Cc1ccccc1)C(=O)N[C@@H](Cc1c[nH]c2ccccc12)C(=O)N[C@@H](Cc1c[nH]c2ccccc12)C(N)=O` [compound 22] (H-ACKFWW-NH2) showed an IC50 of 51 µM.

Regarding `C[C@H](NC(=O)[C@@H](N)Cc1c[nH]cn1)C(=O)N[C@@H](CCCCN)C(=O)N[C@@H](Cc1ccccc1)C(=O)N[C@@H](Cc1c[nH]c2ccccc12)C(=O)N[C@@H](Cc1c[nH]c2ccccc12)C(N)=O` [compound 23] (H-HAKFWW-NH2), it took 30 µM to reach half-maximal inhibition (IC50).

`C[C@H](NC(=O)[C@H](CS)NC(=O)[C@@H](N)Cc1c[nH]cn1)C(=O)N[C@@H](Cc1ccccc1)C(=O)N[C@@H](Cc1c[nH]c2ccccc12)C(=O)N[C@@H](Cc1c[nH]c2ccccc12)C(N)=O` [compound 24] (H-HCAFWW-NH2): half-maximal inhibition (IC50) was put at 49 µM.

For `C[C@H](NC(=O)[C@H](CCCCN)NC(=O)[C@H](CS)NC(=O)[C@@H](N)Cc1c[nH]cn1)C(=O)N[C@@H](Cc1c[nH]c2ccccc12)C(=O)N[C@@H](Cc1c[nH]c2ccccc12)C(N)=O` [compound 25] (H-HCKAWW-NH2), 8 µM corresponded to half-maximal inhibition (IC50).

In turn, `C[C@H](NC(=O)[C@H](Cc1ccccc1)NC(=O)[C@H](CCCCN)NC(=O)[C@H](CS)NC(=O)[C@@H](N)Cc1c[nH]cn1)C(=O)N[C@@H](Cc1c[nH]c2ccccc12)C(N)=O` [compound 26] (H-HCKFAW-NH2) came in with a half-maximal inhibitory concentration (IC50) of 150 µM.

Regarding `C[C@H](NC(=O)[C@H](Cc1c[nH]c2ccccc12)NC(=O)[C@H](Cc1ccccc1)NC(=O)[C@H](CCCCN)NC(=O)[C@H](CS)NC(=O)[C@@H](N)Cc1c[nH]cn1)C(N)=O` [compound 27] (H-HCKFWA-NH2), the IC50 worked out at 210 µM.

Staying with this assay, now noted: 50 μM peptide; results normalized to His-Cys-Lys-Phe-Trp-Trp-NH2 (SEQ ID NO: 19).
Regarding `C[C@H](NC(=O)[C@H](Cc1c[nH]c2ccccc12)NC(=O)[C@H](Cc1ccccc1)NC(=O)[C@H](CCCCN)NC(=O)[C@H](CS)NC(=O)[C@@H](N)Cc1c[nH]cn1)C(N)=O` [compound 2] (H-HCKFWA-NH2), the “% Inhibition of HIV integrase activity” value came out at 2%.

Consider `N=C(N)NCCC[C@H](NC(=O)[C@H](Cc1c[nH]c2ccccc12)NC(=O)[C@H](Cc1ccccc1)NC(=O)[C@H](CCCCN)NC(=O)[C@H](CS)NC(=O)[C@@H](N)Cc1c[nH]cn1)C(N)=O` [compound 3] (H-HCKFWR-NH2), for which the “% Inhibition of HIV integrase activity” value is given as 88%.

In the case of `NCCCC[C@H](NC(=O)[C@H](CS)NC(=O)[C@@H](N)Cc1c[nH]cn1)C(=O)N[C@@H](Cc1ccccc1)C(=O)N[C@@H](Cc1c[nH]c2ccccc12)C(=O)N[C@@H](CC(N)=O)C(N)=O` [compound 4] (H-HCKFWN-NH2), the “% Inhibition of HIV integrase activity” value is recorded as 30%.

In the case of `NCCCC[C@H](NC(=O)[C@H](CS)NC(=O)[C@@H](N)Cc1c[nH]cn1)C(=O)N[C@@H](Cc1ccccc1)C(=O)N[C@@H](Cc1c[nH]c2ccccc12)C(=O)N[C@@H](CC(=O)O)C(N)=O` [compound 5] (H-HCKFWD-NH2), the “% Inhibition of HIV integrase activity” value amounted to 18%.

Regarding `NCCCC[C@H](NC(=O)[C@H](CS)NC(=O)[C@@H](N)Cc1c[nH]cn1)C(=O)N[C@@H](Cc1ccccc1)C(=O)N[C@@H](Cc1c[nH]c2ccccc12)C(=O)N[C@@H](CS)C(N)=O` [compound 6] (H-HCKFWC-NH2), the “% Inhibition of HIV integrase activity” value is on record as 30%.

For `NCCCC[C@H](NC(=O)[C@H](CS)NC(=O)[C@@H](N)Cc1c[nH]cn1)C(=O)N[C@@H](Cc1ccccc1)C(=O)N[C@@H](Cc1c[nH]c2ccccc12)C(=O)N[C@@H](CCC(=O)O)C(N)=O` [compound 7] (H-HCKFWE-NH2), the “% Inhibition of HIV integrase activity” value is recorded as 28%.

`NCCCC[C@H](NC(=O)[C@H](CS)NC(=O)[C@@H](N)Cc1c[nH]cn1)C(=O)N[C@@H](Cc1ccccc1)C(=O)N[C@@H](Cc1c[nH]c2ccccc12)C(=O)N[C@@H](CCC(N)=O)C(N)=O` [compound 8] (H-HCKFWQ-NH2): the “% Inhibition of HIV integrase activity” value worked out at 8%.

As to `NCCCC[C@H](NC(=O)[C@H](CS)NC(=O)[C@@H](N)Cc1c[nH]cn1)C(=O)N[C@@H](Cc1ccccc1)C(=O)N[C@@H](Cc1c[nH]c2ccccc12)C(=O)NCC(N)=O` [compound 9] (H-HCKFWG-NH2), the “% Inhibition of HIV integrase activity” value amounted to 82%.

As for `NCCCC[C@H](NC(=O)[C@H](CS)NC(=O)[C@@H](N)Cc1c[nH]cn1)C(=O)N[C@@H](Cc1ccccc1)C(=O)N[C@@H](Cc1c[nH]c2ccccc12)C(=O)N[C@@H](Cc1c[nH]cn1)C(N)=O` [compound 10] (H-HCKFWH-NH2), the “% Inhibition of HIV integrase activity” value was 72%.

As to `CC[C@H](C)[C@H](NC(=O)[C@H](Cc1c[nH]c2ccccc12)NC(=O)[C@H](Cc1ccccc1)NC(=O)[C@H](CCCCN)NC(=O)[C@H](CS)NC(=O)[C@@H](N)Cc1c[nH]cn1)C(N)=O` [compound 11] (H-HCKFWI-NH2), the “% Inhibition of HIV integrase activity” value was determined as 96%.

Turning to `CC(C)C[C@H](NC(=O)[C@H](Cc1c[nH]c2ccccc12)NC(=O)[C@H](Cc1ccccc1)NC(=O)[C@H](CCCCN)NC(=O)[C@H](CS)NC(=O)[C@@H](N)Cc1c[nH]cn1)C(N)=O` [compound 12] (H-HCKFWL-NH2), the “% Inhibition of HIV integrase activity” value is reported as 8%.

On to `NCCCC[C@H](NC(=O)[C@H](Cc1c[nH]c2ccccc12)NC(=O)[C@H](Cc1ccccc1)NC(=O)[C@H](CCCCN)NC(=O)[C@H](CS)NC(=O)[C@@H](N)Cc1c[nH]cn1)C(N)=O` [compound 13] (H-HCKFWK-NH2), for which the “% Inhibition of HIV integrase activity” value turned out to be 34%.

For `CSCC[C@H](NC(=O)[C@H](Cc1c[nH]c2ccccc12)NC(=O)[C@H](Cc1ccccc1)NC(=O)[C@H](CCCCN)NC(=O)[C@H](CS)NC(=O)[C@@H](N)Cc1c[nH]cn1)C(N)=O` [compound 14] (H-HCKFWM-NH2), the “% Inhibition of HIV integrase activity” value is 42%.

Take `NCCCC[C@H](NC(=O)[C@H](CS)NC(=O)[C@@H](N)Cc1c[nH]cn1)C(=O)N[C@@H](Cc1ccccc1)C(=O)N[C@@H](Cc1c[nH]c2ccccc12)C(=O)N[C@@H](Cc1ccccc1)C(N)=O` [compound 15] (H-HCKFWF-NH2): the “% Inhibition of HIV integrase activity” value came to 95%.

For the molecule `NCCCC[C@H](NC(=O)[C@H](CS)NC(=O)[C@@H](N)Cc1c[nH]cn1)C(=O)N[C@@H](Cc1ccccc1)C(=O)N[C@@H](Cc1c[nH]c2ccccc12)C(=O)N1CCC[C@H]1C(N)=O` [compound 16] (H-HCKFWP-NH2), the “% Inhibition of HIV integrase activity” value was 45%.

Take `NCCCC[C@H](NC(=O)[C@H](CS)NC(=O)[C@@H](N)Cc1c[nH]cn1)C(=O)N[C@@H](Cc1ccccc1)C(=O)N[C@@H](Cc1c[nH]c2ccccc12)C(=O)N[C@@H](CO)C(N)=O` [compound 17] (H-HCKFWS-NH2): the “% Inhibition of HIV integrase activity” value turned out to be 40%.

On to `C[C@@H](O)[C@H](NC(=O)[C@H](Cc1c[nH]c2ccccc12)NC(=O)[C@H](Cc1ccccc1)NC(=O)[C@H](CCCCN)NC(=O)[C@H](CS)NC(=O)[C@@H](N)Cc1c[nH]cn1)C(N)=O` [compound 18] (H-HCKFWT-NH2), for which the “% Inhibition of HIV integrase activity” value is given as 8%.

As to `NCCCC[C@H](NC(=O)[C@H](CS)NC(=O)[C@@H](N)Cc1c[nH]cn1)C(=O)N[C@@H](Cc1ccccc1)C(=O)N[C@@H](Cc1c[nH]c2ccccc12)C(=O)N[C@@H](Cc1c[nH]c2ccccc12)C(N)=O` [compound 19] (H-HCKFWW-NH2), the “% Inhibition of HIV integrase activity” value is recorded as 100%.

As to `NCCCC[C@H](NC(=O)[C@H](CS)NC(=O)[C@@H](N)Cc1c[nH]cn1)C(=O)N[C@@H](Cc1ccccc1)C(=O)N[C@@H](Cc1c[nH]c2ccccc12)C(=O)N[C@@H](Cc1ccc(O)cc1)C(N)=O` [compound 20] (H-HCKFWY-NH2), the “% Inhibition of HIV integrase activity” value is 75%.

Take `CC(C)[C@H](NC(=O)[C@H](Cc1c[nH]c2ccccc12)NC(=O)[C@H](Cc1ccccc1)NC(=O)[C@H](CCCCN)NC(=O)[C@H](CS)NC(=O)[C@@H](N)Cc1c[nH]cn1)C(N)=O` [compound 21] (H-HCKFWV-NH2): the “% Inhibition of HIV integrase activity” value came to 85%.
